Results as given in US9682114B2, “Plant extracts of Ptaeroxylon obliquum nand compounds having antimicrobial and antihelminthic activity” (UNIVERSITY OF PRETORIA, priority 2013, dated 2017).
Values after ≈ are worked out from the molar mass of the structure shown. Where two headings read alike, the source gives them in different places.

Key:
[1] = system: Candida albicans standard strain (ATCC 10231) and clinical isolates; experiment: Broth micro-dilution assay, minimal inhibitory concentration (MIC); assay type: cell-based; conditions: for MIC: Candida albicans, read-out: MIC; for Selectivity index (SI): LC50 against mouse fibroblast cells/MIC
[2] = system: Aspergillus fumigatus; experiment: Microplate dilution MIC, opportunistic fungi (Example 9); assay type: cell-based
Text: (§1) The microplate dilution method (Eloff, 1998), with slight modification (Masoko et al., 2005) was used to test the antifungal activity of the crude extracts, fractions and isolated compounds from P. obliquum. Clinical isolates of the four opportunistic fungal strains Aspergillus fumigatus, Candida albicans, Crytococcus neoformans and Candida albicans ATCC 10231 were used to test for antifungal activity.

[3] = system: Candida albicans (clinical isolate); experiment: as above; assay type: cell-based
Text: as §1

[4] = system: Candida albicans ATCC 10231; experiment: as above; assay type: cell-based; conditions: ATCC10231
Text: as §1

[5] = system: Cryptococcus neoformans; experiment: as above; assay type: cell-based
Text: as §1

[6] = system: Aspergillus niger; experiment: MIC, plant pathogenic fungi; assay type: cell-based
Procedure: as §1
(§2) The antifungal activity of the crude extracts and the five fractions were also tested against 10 plant pathogenic fungi (Aspergillus niger, Aspergillus parasiticus, Colletotrichum gloeosporioides, Fusarium oxysporum, Penicillium digitum, Penicillium expansum, Penicillium italicum, Penicillium janthinellum, Trichoderma harzianum and Rhizoctonia solani).

[7] = system: Aspergillus parasiticus; experiment: MIC, plant pathogenic fungi; assay type: cell-based
Procedure: as §1, §2

[8] = system: Colletotrichum gloeosporioides; experiment: MIC, plant pathogenic fungi; assay type: cell-based
Procedure: as §1, §2

[9] = system: Fusarium oxysporum; experiment: MIC, plant pathogenic fungi; assay type: cell-based
Procedure: as §1, §2

[10] = system: Penicillium digitum; experiment: MIC, plant pathogenic fungi; assay type: cell-based
Procedure: as §1, §2

[11] = system: Penicillium expansum; experiment: MIC, plant pathogenic fungi; assay type: cell-based
Procedure: as §1, §2

[12] = system: Penicillium italicum; experiment: MIC, plant pathogenic fungi; assay type: cell-based
Procedure: as §1, §2

[13] = system: Penicillium janthinellum; experiment: MIC, plant pathogenic fungi; assay type: cell-based
Procedure: as §1, §2

[14] = system: Rhizoctonia solani; experiment: MIC, plant pathogenic fungi; assay type: cell-based
Procedure: as §1, §2

[15] = system: Trichoderma harzianum; experiment: MIC, plant pathogenic fungi; assay type: cell-based
Procedure: as §1, §2

[16] = system: Mycobacterium aurum; experiment: Serial microplate dilution MIC, mycobacteria; assay type: cell-based; conditions: Mycolicibacterium aurum
[17] = system: Mycobacterium bovis; experiment: microbe, parasite or virus in culture; assay type: cell-based
[18] = system: Mycobacterium fortuitum; experiment: Serial microplate dilution MIC, mycobacteria; assay type: cell-based
[19] = system: Mycobacterium smegmatis; experiment: Serial microplate dilution MIC, mycobacteria; assay type: cell-based
[20] = system: Enterococcus faecalis ATCC 29212; experiment: Serial microplate dilution MIC, bacteria; assay type: cell-based; conditions: ATCC29212
Procedure: (§3) The serial microplate dilution method developed by Eloff (1998) was used to determine the minimal inhibitory concentration (MIC) of the crude extracts, fractions and isolated compounds from P. obliquum against several bacterial strains. The antimicrobial activity was determined against the bacterial strains Escherichia coli ATTC 27853, Escherichia coli ATTC 6739, Enterococcus faecalis ATCC 29212, Pseudomonas aeruginosa ATCC 25922, Staphylococcus aureus ATCC 6538, Staphylococcus aureus ATCC 29213, Salmonella typhi ATCC 14028.

[21] = system: Escherichia coli ATTC 27853; experiment: Serial microplate dilution MIC, bacteria; assay type: cell-based; conditions: ATTC27853
Procedure: as §3

[22] = system: Escherichia coli ATTC 6739; experiment: Serial microplate dilution MIC, bacteria; assay type: cell-based; conditions: ATTC6739
Procedure: as §3

[23] = system: Pseudomonas aeruginosa ATCC 25922; experiment: Serial microplate dilution MIC, bacteria; assay type: cell-based; conditions: ATCC25922
Procedure: as §3

[24] = system: Salmonella typhi ATCC 14028; experiment: Serial microplate dilution MIC, bacteria; assay type: cell-based; conditions: Salmonella enterica
Procedure: as §3

[25] = system: Staphylococcus aureus ATCC 29213; experiment: Serial microplate dilution MIC, bacteria; assay type: cell-based; conditions: ATCC29213
Procedure: as §3

[26] = system: Staphylococcus aureus ATCC 6538; experiment: Serial microplate dilution MIC, bacteria; assay type: cell-based; conditions: ATCC6538
Procedure: as §3

[27] = system: Haemonchus contortus (egg); experiment: Egg hatch assay (EHA); assay type: cell-based; conditions: egg of Haemonchus contortus; read-out: Antihelminthic activity EC50 (mg/ml) EDA
Procedure: (§4) The extract and isolated compound were tested for activity on Haemonchus contortus.

[28] = system: Haemonchus contortus (larva); experiment: Larval development test (LDT); assay type: cell-based
Procedure: as §4

[29] = system: bacterial strains (E. coli, E. faecalis, P. aeruginosa, S. aureus, S. typhi); experiment: Antibacterial MIC, summary statements over all bacterial strains tested; assay type: cell-based; conditions: read-out: MIC (bacteria tested, summary)
Procedure: as §3

[30] = system: mouse fibroblast cells; conditions: 5 days
Text: (§5) The MTT assay was used to determine the cytotoxicity of dried acetone extracts of H. caffrum (leaves); P. obliquum (leaves); R. melanophloeos (leaves) and S. birrea (stem bark) reconstituted in dimethyl sulphoxide (DMSO) against Mouse fibroblast cells (obtained from the Department of Plant Science, Faculty of Natural and Agricultural Sciences, University of Pretoria, South Africa).
(§6) MTT (yellow) is reduced into a formazan (purple) by viable cells. The colour intensity of the formazan produced, which is directly proportional to the number of viable cells, is measured using a spectrophotometer (Mosmann, 1983; Shai, 2007).
(§7) Cells were maintained in minimal essential medium (MEM) (Highveld Biological, South Africa) supplemented with 0.1% gentamicin (Virbac) and 5% foetal calf serum (Adcock-lngram). […] Dried crude plant extracts (100 mg) were reconstituted in 1 ml of DMSO and serial 10-fold dilutions of each extract were prepared in growth medium. The growth medium on sub-confluent monolayer cells grown overnight in microtitre plates was removed and cells were exposed to 200 μl of the extracts at different concentrations and incubated again at 37° C. for 5 days. Viability of cells was determined using the tetrazolium-based colorimetric assay (MTT assay) described by Mossmann (1983). Before the addition of MTT, the extract-containing medium on the cells was replaced with fresh culture medium to exclude reduction of the tetrazolium compound by plant extracts. The assay is based on mitochondrial dehydrogenase activity which is assessed by the reductive cleavage of the tetrazolium salt MTT [3-(4.5-dimethylthiazolyl)2.5-diphenyltetrazolium bromide] due to the succinic dehydrogenase present in living cells to yield a purple formazan dye. The cells were incubated with 30 μl of 5 mg/ml MTT in phosphate-buffered saline (PBS) for four hours. Thereafter, medium was removed and cells washed with PBS. DMSO (50 μl) was added to the cells and absorbance was measured using a Versamax microplate reader at 570 nm. Berberine chloride (Sigma) was used as a positive control, wells containing only cells acted as the negative control and a solvent control was also included. The percentage cell viability following the addition of varying concentrations of the extracts in relation to controls was calculated. The LC50 values were calculated (using SoftMax Pro4.8 Software) as the concentration of plant extracts resulting in 50 percent reduction of absorbance compared to untreated cells. Tests were carried out in quadruplicate and each experiment was repeated three times.

[31] = in vitro; conditions: mouse, LC50 (cytotoxicity)
Text: as §5, §6, §7

[32] = in vitro
[33] = in vitro; conditions: human

CC(=O)OCC1=CCc2c(cc(O)c3c(=O)cc(C)oc23)OC1 [Compound 2, 8,11-Dihydro-5-hydroxy-12-hydroxymethyl-2-methyl-4H-pyrano[2,3-g][1]benzoxepin-4-one 12-O-acetate]
MIC ([1]; 12 h, 12 h incubation, C. albicans 1051255): > 250 µg/mL
MIC ([1]; 12 h, 12 h incubation, C. albicans 1051604): > 250 µg/mL
MIC ([1]; 12 h, 12 h incubation, C. albicans 1051608): 8 µg/mL (≈ 25.3 µM)
MIC ([1]; 12 h, 12 h incubation, C. albicans ATCC 10231): 4 µg/mL (≈ 12.6 µM)
MIC ([1]; 12 h, 12 h incubation, C. albicans M0824): > 250 µg/mL
MIC ([1]; 12 h, 12 h incubation, C. albicans M0825): > 250 µg/mL
MIC ([1]; 12 h, 12 h incubation, C. albicans M0826): > 250 µg/mL
MIC ([1]; 24 h, 24 h incubation, C. albicans 1051255): > 250 µg/mL
MIC ([1]; 24 h, 24 h incubation, C. albicans 1051604): > 250 µg/mL
MIC ([1]; 24 h, 24 h incubation, C. albicans 1051608): 250 µg/mL (≈ 790 µM)
MIC ([1]; 24 h, 24 h incubation, C. albicans ATCC 10231): 4 µg/mL (≈ 12.6 µM)
MIC ([1]; 24 h, 24 h incubation, C. albicans M0824): > 250 µg/mL
MIC ([1]; 24 h, 24 h incubation, C. albicans M0825): > 250 µg/mL
MIC ([1]; 24 h, 24 h incubation, C. albicans M0826): > 250 µg/mL
MIC ([1]; C. albicans ATCC 10231, mean value): 4 µg/mL (≈ 12.6 µM)
Selectivity index (SI) ([1]; C. albicans 1051255): <0.029
Selectivity index (SI) ([1]; C. albicans 1051604): <0.029
Selectivity index (SI) ([1]; C. albicans 1051608): 0.029
Selectivity index (SI) ([1]; C. albicans ATCC 10231): 1.808
Selectivity index (SI) ([1]; C. albicans M0824): <0.029
Selectivity index (SI) ([1]; C. albicans M0825): <0.029
Selectivity index (SI) ([1]; C. albicans M0826): <0.029
Selectivity index (SI) Average ([1]; average over ATCC 10231 and clinical isolates): 0.283
MIC [2]: 16 µg/mL (≈ 50.6 µM)
MIC [3]: 62.5 µg/mL (≈ 198 µM)
MIC [4]: 2 µg/mL (≈ 6.32 µM)
MIC [5]: 8 µg/mL (≈ 25.3 µM)
MIC [6]: 32 µg/mL (≈ 101 µM)
MIC [7]: 250 µg/mL (≈ 790 µM)
MIC [8]: 32 µg/mL (≈ 101 µM)
MIC [9]: 63 µg/mL (≈ 199 µM)
MIC [10]: 32 µg/mL (≈ 101 µM)
MIC [11]: 32 µg/mL (≈ 101 µM)
MIC [12]: 125 µg/mL (≈ 395 µM)
MIC [13]: 63 µg/mL (≈ 199 µM)
MIC [14]: 8 µg/mL (≈ 25.3 µM)
MIC ([14]; R. solani, read-out: MIC): 8 µg/mL (≈ 25.3 µM)
MIC [15]: 16 µg/mL (≈ 50.6 µM)
MIC ([15]; T. harzianum, read-out: MIC): 16 µg/mL (≈ 50.6 µM)
MIC [16]: 125 µg/mL (≈ 395 µM)
MIC ([17]; Mycobacterium bovis): 31.5 µg/mL (≈ 99.6 µM)
MIC ([17]; Mycobacterium tuberculosis variant bovis): 31.5 µg/mL (≈ 99.6 µM)
MIC ([18]; Mycobacterium fortuitum): 8 µg/mL (≈ 25.3 µM)
MIC ([18]; Mycolicibacterium fortuitum, M. fortuitum, read-out: MIC): 8 µg/mL (≈ 25.3 µM)
MIC ([19]; Mycobacterium smegmatis): 16 µg/mL (≈ 50.6 µM)
MIC ([19]; Mycolicibacterium smegmatis, M. smegmatis, read-out: MIC): 16 µg/mL (≈ 50.6 µM)
MIC [20]: > 250 µg/mL
MIC [21]: 80 µg/mL (≈ 253 µM)
MIC [22]: 80 µg/mL (≈ 253 µM)
MIC [23]: 31.5 µg/mL (≈ 99.6 µM)
MIC [24]: 31.5 µg/mL (≈ 99.6 µM)
MIC [25]: 31.5 µg/mL (≈ 99.6 µM)
MIC [26]: 31.5 µg/mL (≈ 99.6 µM)
EC50 [27]: 0.224 ± 0.0286 mg/mL (≈ 707 µM)
EC50 ([28]; Haemonchus contortus larvae, read-out: EC50 against larvae): 0.0956 mg/mL (≈ 302 µM)
EC50 ([28]; larva of Haemonchus contortus, read-out: Antihelminthic activity EC50 (mg/ml) LDT): 0.0956 ± 0.002 mg/mL (≈ 302 µM)
MIC [29]: 31.5 µg/mL (≈ 99.6 µM)
LC50 (cytotoxicity) [30]: 7.23 µg/mL (≈ 22.9 µM)
CC50 at 5 days [31]: 7.23 µg/mL (≈ 22.9 µM)
CC50 ([32]; monkey and human): > 200 µg/mL

COc1cccc2c1C(=O)c1c(O)c3c(c(O)c1C2=O)C[C@@](O)(C(=O)CO)C[C@@H]3O[C@H]1C[C@H](N)[C@H](O)[C@H](C)O1 [doxorubicin, reference compound]
CC50 ([32]; monkey): 2510 ± 203 nM
CC50 [33]: 116 ± 17.4 nM
